Usually melting point stands for the temperature, or range, at which the solid turns liquid.

Compound `CCCCc1nc2c(N)nc3cccnc3c2n1CCCCNC(=O)CSc1ccncc1` had a melting point of 128 to 129 °C.
As for `FC(F)(F)c1cc(-c2ccc(Br)cc2)nc2c(-c3ccncc3)cnn12`, the melting point was 289 °C.
Under `CC(C)(CO)CCCCCCCCCC(C)(C)CO` stands 52 to 54 °C; under `COc1ccnc(CN2C(=O)C(NC(=O)Nc3cccc(C)c3)N=C(c3ccccc3F)c3ccccc32)c1` (configuration not stated), 195 to 200 °C.
Under `CCCc1c(O)c(C(C)=O)cc(Cl)c1OCCCOc1ccc2ccc(OCC(=O)O)cc2c1C(C)=O` stands 132 to 134 °C.
The result for `O=C(c1ccc([N+](=O)[O-])c(OCC2CO2)c1)N1CCOCC1` (configuration not stated) reads 156 to 158 °C; that for `Cc1c(Cl)cc(C(C)(C)C)c(O)c1-c1nc2cc(S(=O)(=O)C(F)(F)F)ccc2[nH]1`, 174 to 176 °C.
With `C[C@H](Cc1ccc(-c2cc(F)c(C#N)c(F)c2)cc1)c1ccccc1`, the melting point was 60.7 to 62.2 °C.
The result for `COC(=N)c1ccc(Br)cc1` reads 64 to 65 °C.
Compound `CCCc1nc2c(N)nc3cccnc3c2n1CCCCCC(=O)N1CCOCC1` came in with a melting point of 148 to 150 °C.
The result for `COC(=O)c1cc(I)ccc1NC=C1C(=O)OC(C)(C)OC1=O` reads 206 to 208 °C.
The result for `CON=CNC(=O)c1ccc(C2=NOC(c3cc(Cl)cc(Cl)c3)(C(F)(F)F)C2)cc1C(C)(C)N` (configuration not stated) reads 144 to 146 °C; that for `O=C(O)CCCCCN1C(=O)c2cccc([N+](=O)[O-])c2C1=O`, 144 °C; that for `CCS(=O)(=O)c1sc(S(N)(=O)=O)cc1C(C)NC(C)=O` (configuration not stated), 213 to 220 °C.
`CC(c1ccc2[nH]c(C(F)(F)F)nc2c1)n1ccnc1` (configuration not stated) had a melting point of 165 °C.
Under `Cc1noc(C)c1Cn1cc(NC(=O)c2ccccn2)cn1` stands 135 to 137 °C; under `Cc1nc2cc(C(=O)Nc3ccccc3)ccc2o1`, 138 to 139 °C.
Under `CS(=O)(=O)c1c(C(=O)c2cnoc2C2CC2)ccc2c1OC(F)(F)O2` stands 162 to 163 °C.
The result for `O=C1NC(C(=O)N2CC(O)CC2C(=O)O)CSCCCCCCCC1CS` (configuration not stated) reads 124 to 130 °C; that for `Nc1nc2c(s1)CCN(CC=Cc1c[nH]c3ccccc13)CC2`, 155 to 160 °C; that for `CN1C(=O)Cc2ccc(Cl)cc21`, 116 to 117 °C.
In turn, `CCOc1nc2nc(C(OC(C)=O)C3(Br)C(=O)N4C(C(=O)OCc5ccc([N+](=O)[O-])cc5)=CSC43)cn2c2c1CCC2` (configuration not stated) returned a melting point of 119 °C.
For `NS(=O)(=O)c1cc2cc3c(cc2n1S(=O)(=O)c1ccccc1)OCO3`, the melting point was 229 to 232 °C.
Compound `COCC(=O)Nc1nc(NC(=O)COC)c2[nH]cnc2n1` came in with a melting point of 219 to 220 °C.
Under `CCCCCCCCOc1ccc(-c2ccc(NC(=O)N(O)C(CC)CC)cc2)cc1` stands 151 to 152 °C; under `Nc1c(Cl)cc(C(O)CNCCCCCOCCc2ccc(F)cc2)cc1Cl` (configuration not stated), 75 to 76 °C.
For the compound `COCOc1cc(C=O)c2nc3cccc(OCOC)c3nc2c1`, the melting point lay within 148 to 150 °C.
The result for `COCCN(CCOC)c1ccc(P(=O)(C(=O)c2c(C)cc(C)cc2C)C(=O)c2c(C)cc(C)cc2C)cc1` reads 103 to 106 °C; that for `Cc1sc(-c2ccco2)nc1O`, 173 to 174 °C; that for `COc1ccc(-n2ccc3ccccc32)cc1F`, 65 to 67 °C.
Under `Nc1nc2ccccc2n1-c1cccc(-c2ccc3[nH]ccc3c2)c1` stands 120 to 123 °C; under `O=C1Nc2ccccc2N2CCN(CCc3ccccn3)CC12` (configuration not stated), 167 to 169 °C.
Under `CCOC(=O)c1ccc(C(=O)c2c(N)sc3c2CCN(C(=O)OCc2ccccc2)C3)cc1` stands 195 to 196 °C; under `CCNC(Cc1ccc(O)cc1)C(=O)OCC` (configuration not stated), 87 to 89 °C.
The compound `CC(C)CC(NC(=O)CNc1ccc(Cl)cc1)C(=O)NCC#N` (configuration not stated) gave a melting point of 131 to 134 °C.
The result for `CC(=O)C1(c2ccccc2)CCN(C(=O)OC(C)(C)C)CC1` reads 91 to 92 °C; that for `CC(C#Cc1ccc(C=Cc2ccc(F)cc2)s1)N(O)C(N)=O` (configuration not stated), 177 °C; that for `COC(=O)CCCc1cc2nc(Cl)ccc2n1S(=O)(=O)c1ccc2nc(NC(C)=O)sc2c1`, 274 °C.
The result for `CCN(C(=O)C1CC1)c1cccc(-c2ccc3nnc(C)n3n2)c1` reads 149 to 151 °C.
`CN(C(=O)c1nnc2ccccc2c1O)c1ccccn1` gave a melting point of 237 to 239 °C.
Under `CS(=O)(=O)Nc1cccc2c(O)ccc(N=Nc3cccc(S(=O)(=O)NCCCCCCBr)c3)c12` stands 163 to 165 °C; under `Nc1ccc(Sc2ccc(Cl)cc2)nc1`, 55 to 57 °C; under `CCCC(=O)c1ccc(=O)[nH]c1CCC`, 86 to 88 °C.
The result for `Cn1ncc(C=O)c1-c1ccc([N+](=O)[O-])o1` reads 130 °C.
Under `O=C(O)CCCc1ccc(-c2ccc(F)cc2F)cc1` stands 76 to 77 °C; under `CC(=O)N1CCC2(CC1)CSC1=C(O2)c2ccccc2C(=O)C1=O`, 252 to 255 °C.
`Cc1noc(NC(=O)NCCC2CCN(Cc3ccccc3)CC2)n1` displayed a melting point of 138 to 139 °C.
The result for `CN1CCCNC(=O)C1` reads 91 °C; that for `O=CCCc1cc(F)c2ncc(C(=O)NCc3ccc(Cl)cc3)c(O)c2c1`, 242 to 244 °C.
Under `NC(=O)N(O)Cc1cscc1Br` stands 134 to 136 °C; under `CC(C)(CO)C(=O)C(Oc1ccc(Cl)cc1)n1cncn1` (configuration not stated), 110 to 111 °C; under `COc1cc(CCCC(=O)O)ccc1OCc1nc(-c2ccco2)oc1C`, 129 to 130 °C.
Under `Oc1cccc(C2CCCN(CCc3c[nH]c4ccccc34)C2)c1` (configuration not stated) stands 130 to 135 °C; under `CCCn1cnc2c1c(=O)n(CCCCCCO)c(=O)n2C`, 68 to 70 °C.
`CCCc1nc(-c2ncn3c2COC(=O)c2c(Cl)cccc2-3)no1` yielded a melting point of 130 to 132 °C.
Under `Cc1cc(C)n2ncc(I)c2n1` stands 120 to 122 °C; under `CNC(=O)c1cncc(NC(=O)N2CCC3(CCc4ccc(F)cc4O3)CC2)c1`, 231 to 233 °C; under `CCCCCCCCC1C=CC(C(=O)c2ccc(C(=O)O)o2)=C2N=C3CCCCC3=C21` (configuration not stated), 140 to 142 °C.
The result for `O=C(c1ccccc1)c1nsc(N2CCN(c3ccccn3)CC2)n1` reads 110 to 111 °C; that for `CCOC(=O)c1cnc2c(N=C3C(=O)OC(C)(C)OC3=O)cccc2c1`, 228 to 231 °C; that for `CCNCC1CCN(c2c(F)cc3c(=O)c(C(=O)O)cn(C4CC4)c3c2C(F)(F)F)C1` (configuration not stated), 239 to 241 °C.
Under `Cc1c(C)c(N2CCN(c3ccc(C(C)O)cc3)CC2)c(C)c2c1OC(C)(C)C2` (configuration not stated) stands 133 to 136 °C; under `Cc1ccc(S(=O)(=O)OCCc2ccccc2Br)cc1`, 39 to 39.5 °C; under `NC1=CN(Cc2ccc(Cl)cc2Cl)CN=C1`, 104 to 105 °C.
For `CC(C)Oc1ccc(C(=O)N2CCNC2=Nc2c(Cl)cccc2Cl)cc1`, the melting point was in the range of 146 to 148 °C.
Take `Nc1c(-c2ccc(O)cc2)nnn1-c1ccc(C(F)(F)F)cc1Cl`: the melting point lay in the range of 161 to 162 °C.
The result for `CC(C)COc1ccccc1-c1ccc(C(N)=O)c(=O)[nH]1` reads 180 °C.
`COCCn1c(=O)ccc2cnc(Nc3ccccc3)nc21`: the melting point was in the range of 179 to 180 °C.
Under `Cc1cc2c(O)nc(O)nc2s1` stands over 300 °C; under `CC(C)C1=C(C#N)C(c2cccc(Cl)c2Cl)c2c[nH]nc2N1` (configuration not stated), over 250 °C.
Under `Cc1cc(C)cc(Oc2ccc(-n3ccnc3)nn2)c1` stands 170 °C.
Under `CC(C(=O)O)c1ccc2c(c1)C(=O)c1ccccc1CN2C` (configuration not stated) stands 155 to 158 °C.
The compound `Nc1nc(-c2ccc(Cl)cc2C(=O)c2ccccc2)c(CN2C(=O)c3ccccc3C2=O)s1` returned a melting point of 253 to 255 °C.
For the compound `OCCNCCOCCOCCNCCO`, the melting point was 49 to 55 °C.
The result for `COc1ccc(C(=O)Nc2c(Cl)cncc2Cl)cc1OC1CC=CC1` reads 193 to 195 °C.
The result for `CCCC(Sc1nc2ccccc2[nH]1)C(=O)Nc1c(SC)cc(C)nc1SC` (configuration not stated) reads 235 to 237 °C; that for `Cc1sccc1C1(c2cccc(-c3cncnc3)c2)N=C(N)N(C)C1=O` (configuration not stated), 154 to 159 °C; that for `COC(=O)c1ccc(Cn2ccc(OCc3ccc(F)cc3F)c(Br)c2=O)cc1`, 136 to 139 °C.
Turning to `C=CCOCc1csc2c(=O)c(C(=O)NCc3ccc(Cl)cc3)cn(C)c12`, the melting point lay within 156 to 158 °C.
Regarding `CCNC(=O)c1ccccc1NC(C)(C)C`, the melting point was in the range of 37 to 40 °C.
As to `CC(I)CC(F)(F)C(F)(F)C(F)(F)C(F)(F)CC(C)I` (configuration not stated), the melting point was in the range of 35 to 35.5 °C.
The result for `N#CNC(=NC1CCN(Cc2ccccc2)CC1)NC1Cc2ccccc2C1` reads 138 to 140 °C; that for `O=C(Nc1ncnc2c1ncn2CC(O)CF)c1ccccc1` (racemic), 197 °C; that for `C1=COc2ccc3[nH]c4c(c3c2=C1)C=CN=CC=4`, over 177 °C.
The result for `Cc1nn(-c2ccc(Cl)cc2F)c(=O)[nH]1` reads 115 °C; that for `Cc1c(C)c(S(=O)(=O)C[N+](=O)[O-])c(C)c2c1OCCC2`, 104 to 106 °C.
Under `C/C(Cn1oc(=O)[nH]c1=O)=C(\C)c1cccc(OCc2nc(-c3ccc(C(F)(F)F)cc3)oc2C)c1` stands 144 to 145 °C; under `Fc1ccc2onc(CCCN3CCN(c4cc5ccccc5cn4)CC3)c2c1`, 130 to 133 °C; under `COc1ccc(C2CCN(C(=O)Nc3ccc4cc(CN5CCCC5)ccc4c3)CC2)cc1`, 194 to 196 °C.
In turn, `O=C1NC(c2cccs2)=C2C(=O)NC(c3cccs3)=C12` displayed a melting point of over 400 °C.
The result for `O=Cc1cc(O)c(O)c(C(F)(F)F)c1` reads 188 to 192 °C.
In the case of `CC(=O)N1CCn2c3c(c4cccc(c42)C1)CCCCCC3`, the melting point fell in the range of 41 to 44 °C.
